Consider 2 compounds from PMC4117768, “Conjugation with polyamines enhances the antibacterial and anticancer activity of chloramphenicol” (Nucleic Acids Research, 2014).

The test system of data set [1] is Jurkat (T-cell acute lymphoblastic leukemia) cells. In words: Toxicity assay in leukemic cell line (cell counting, Annexin V flow cytometry). Conditions: for sensitivity of cells / inhibition of cell proliferation (cell counting): increasing concentrations. The data set is classed as cell-based, human. On the procedure:
Human leukemic cell lines, HS-Sultan (Burkitt's lymphoma) (European Collection of Cell Cultures, Salisbury, UK), Jurkat (T-cell acute lymphoblastic leukemia) and U937 (histiocytic lymphoma) (American Type Culture Collection, Manassas, USA), were adjusted to 1 × 10^9 cells/l in RPMI-1640 medium containing 1% Penicillin/Streptomycin and 10% fetal bovine serum and grown in triplicate in the presence or absence of CAM or PA–CAM conjugates for 4 days at 37°C, under a humidified 5% CO2 atmosphere. The medium was changed after 2 days of exposure; CAM or PA-CAM addition was repeated after medium change to keep the appropriate drug concentration. Aliquots were collected daily and counted in a CELL-DYN 3700 Hematology Analyzer. For cell necrosis and apoptosis assays, samples (10^6 cells) were collected daily and determined using the Annexin V-PE Apoptosis Detection Kit I (BD Pharmingen) for flow cytometry ([29]), as described by the manufacturer. Flow cytometry data were analyzed using the FlowJo flow cytometry analysis software. Necrotic and apoptotic cells were expressed as a percentage of total cells.
Figure S2. Toxicity assays in leukemic cell lines. Human leukemic cell lines, HS-Sultan, Jurkat, and U937 were adjusted to 1×10^9 cells/l in RPMI-1640 medium containing 1% Penicillin/Streptomycin and 10% fetal bovine serum and grown in triplicate in the presence or absence of CAM or compound 4 at the indicated concentrations for 5 days at 37°C, under a humidified 5% CO2 atmosphere. Aliquots were collected daily and counted in a CELL-DYN 3700 Hematology Analyzer.
Figure S4. Toxicity assays in Jurkat cells. Jurkat cells were adjusted to 1×10^9 cells/l in RPMI-1640 medium containing 1% Penicillin/Streptomycin and 10% fetal bovine serum and grown in triplicate in the presence or absence of CAM or compound 4 at the indicated concentrations for 4 days at 37°C, under a humidified 5% CO2 atmosphere. Cell necrosis and apoptosis assays were performed as described in Figure S3. Necrotic and apoptotic cells were expressed as a percentage of total cells.

The test system of the next data set is wild-type E. coli. In words: Growth inhibition of bacterial cell cultures. In kind it is cell-based. Particulars: for IC50: Escherichia coli, read-out: IC50 (inhibit the growth by half); for IC50/IC50(puro): wild-type E. coli, IC50(puro) = concentration causing 50% inhibition in peptide-bond formation at 2 mM puromycin. As for the experimental part: (§1) S. aureus or E. coli cells (400 μl of a 0.700 OD560 preculture) containing wild-type or mutant ribosomes were added in 3.6 ml of LB (Luria Broth) medium and grown at 37°C in the presence or absence of CAM or PA–CAM conjugates until the optical density of the control culture (grown in the absence of drug) reached the value 0.700 at 560 nm. From the growth curves, the IC50 value for each strain was estimated as the concentration of the drug that is required to inhibit the growth by half.

In a further data set the test system is wild-type S. aureus. In words: Growth inhibition of bacterial cell cultures. In kind it is cell-based. Conditions: Staphylococcus aureus, read-out: IC50 (inhibit the growth by half). As for the experimental part:
as §1

Data set [2] relates to human mesothelioma cells ZL34. Put plainly: Cell viability by trypan blue exclusion assay. The data set is classed as cell-based. Conditions: for IC50: Homo sapiens, ZL34 cells, read-out: IC50 (toxicity, cell viability). As for the experimental part: (§2) ZL34 and Met5A cells were plated in sterile 96-well microtiter plates at 5 × 10^4cells/ml and grown in Dulbecco's modified Eagle's medium (DMEM), provided by Sigma-Aldrich and supplemented with 5% fetal bovine serum. Cultures were maintained in a humidified atmosphere with 5% CO2, at 37°C. Solutions at the appropriate concentration of each compound were added, and then cells were grown for 24, 48, 72 and 96 h. After treatment, the drug was removed by washing the cells twice with phosphate buffered saline. The cells were then trypsinized (100 μl Trypsin-EDTA × 1 (Biosera) solution/well, 10 min at 37°C), mixed with 1 ml DMEM and collected by centrifugation at 3000 × g for 5 min. Cell viabilities were determined by the trypan blue exclusion assay, using a TC10 automated cell counter (BIO-RAD). Viable cells were expressed as a percentage of total cells.
(§3) Figure S5. Toxicity assays in ZL34 and Met5A cell lines. ZL34 or Met5A cells were plated in sterile 96-well microtiter plates at 5×10^4 cells/ml and grown in DMEM, supplemented with 5% fetal bovine serum. Cultures were maintained in a humidified atmosphere with 5% CO2, at 37°C. Solutions at the appropriate concentration of each compound were added, and then cells were grown for 24 h, 72 h and 96 h. After treatment, CAM or compound 4 was removed by washing the cells twice with PBS. The cells were then trypsinized, mixed with 1 ml DMEM and collected by centrifugation at 3,000×g for 5 min. Cell viabilities were determined by the trypan blue exclusion assay, using a TC10 automated cell counter (BIO-RAD). Viable cells were expressed as a percentage of total cells. SPD, spermidine.

Data set [3] deals with immortalized human mesothelial Met5A cells. Put plainly: Cell viability by trypan blue exclusion assay. In kind it is cell-based. Conditions: for IC50: Homo sapiens, MeT-5A, Met5A cells, read-out: IC50 (toxicity, cell viability). As for the experimental part: as §2, §3
Data set [4] deals with complex C (poly(U)-programmed ribosomes from E. coli bearing Ac[3H]Phe-tRNA at the P-site), peptidyl transferase. On the set-up: method as in PMID 12930958. Conditions: cited from earlier work.

“Also recorded” adds a separate entry of the source. Read-outs that look alike come from different tables or passages of the source.

As to `NCCCN(CCCCN(Cc1ccccc1)Cc1ccccc1)C(=O)CCC(=O)N[C@H](CO)[C@H](O)c1ccc([N+](=O)[O-])cc1` [Compound 4], the “induction of necrosis (flow cytometry)” value in data set [1] (60 μM) was “induced necrosis”. Also, the “sensitivity of cells / inhibition of cell proliferation (cell counting)” value in data set [1] is on record as “sensitive; also recorded: more effective than CAM”. Further, the IC50 turned out to be 9.4 ± 0.8 µM in the data set with wild-type E. coli, 4.7 ± 0.5 µM with wild-type S. aureus, 25 ± 3 µM in data set [2] and 60 ± 5 µM in data set [3]. The “IC50/IC50(puro)” value with wild-type E. coli is given as 5.60 ± 0.76. Besides, in data set [2] (ZL34 cells exposed to an IC50 dose of the compound, spermidine at 10 × IC50), the “viability after rescue by exogenously added spermidine” value was approximately 95%. In addition, the “rescue by exogenously added spermidine” value in data set [3] (Met5A cells exposed to an IC50 dose of the compound, spermidine at 10 × IC50) is reported as “recover little of the lost viability”.

Turning to `O=C(N[C@H](CO)[C@H](O)c1ccc([N+](=O)[O-])cc1)C(Cl)Cl` [CAM, Chloramphenicol], the “induction of apoptosis (flow cytometry)” value in data set [1] (60 μM) is “failed to induce apoptosis”. Besides, the “induction of necrosis (flow cytometry)” value in data set [1] (60 μM) is given as “failed to induce necrosis/apoptosis”. Also, the “sensitivity of cells / inhibition of cell proliferation (cell counting)” value in data set [1] is “sensitive”. Also, the koff in data set [4] was 0.0165 ± 0.00067 s⁻¹. In addition, the Ki is 3.1 ± 0.3 µM in data set [4] (early phase) and 0.88 ± 0.07 µM in data set [4] (late phase). The IC50 in the data set on wild-type E. coli (WT-E. coli, LB medium, 37°C) is 6.2 ± 0.5 µM; in the data set with wild-type S. aureus (WT-S. aureus, LB medium, 37°C), 3.1 ± 0.3 µM; in data set [2], more than 300 µM; in data set [3], more than 300 µM. In addition, in the data set on wild-type E. coli, the “IC50/IC50(puro)” value is 1.17 ± 0.13. Further, the “rescue by exogenously added spermidine” value in data set [2] (ZL34 cells treated with 300 μM compound, 3 mM spermidine) is on record as “no rescue was observed”.
